Results from US9827210B2, “Treatment or prophylaxis of a neurological or neuropsychiatric disorders via ocular administration” (Phovitreal Pty Ltd, priority 2007, dated 2017).

Assays:
[1] = tested on: rats with experimental Parkinson's disease; assay: 6-hydroxy dopamine model of Parkinson's disease in rats, intraocular or intravitreal injection; type: in vivo; conditions: bilateral 6-hydroxy dopamine lesion, 2 μl of 10 mMol solution into vitreous humor of both eyes on days 2, 3 and 4 after surgery, versus PD+IOVeh (70% DMSO)
Description: At appropriate concentrations, the neurotoxin 6-hydroxy dopamine produces specific and permanent depletion of dopamine in the brain and more specifically of the nigro-striatal dopamine system (Ungerstedt, U. et al, Adv. Neurol., 5, 421, 1974; Willis, G. L. & Armstrong, S. A., Brain Res. Rev., 27, 177, 1998). Intracranial injections of 6-hydroxy dopamine were used to produce a model of Parkinson's disease (and schizophrenia). Bilateral lesions produced a vegetative, akinetic syndrome in which there is a lack of voluntary movement, hunched posture and body weight loss accompanied by a loss in the ability to eat and drink.
b) After preparatory surgery that permitted access to the brain, rats were induced with bilateral experimental Parkinson's disease by injection of the neurotoxin 6-hydroxy dopamine into the nigro-striatal dopamine system. On days 2, 3 and 4 after surgery a single 2 μl intraocular or intravitreal injection was made into the vitreous humor of both eyes. The solution injected was either a 10 mMol solution of ML-23 (PD+IODrug) or a 10 mMol solution of vehicle (PD+IOVeh). The vehicle used was 70% DMSO. For comparison, a control group was not made Parkinsonian but received intraocular or intravitreal injection of vehicle in the same volume as the experimental groups (C+IOVeh). […]

[2] = tested on: Sprague-Dawley rats pre-treated with dl-amphetamine; assay: dl-amphetamine-induced psychosis in rats, intravitreal injection, motor tests; type: in vivo; conditions: 2 μl of 12.5 μg/μl into vitreous humor after 5 days of 1 mg/kg dl-amphetamine i.p.; measured three hours after injection; versus 80% DMSO vehicle; FIG. 4
Protocol: Lesions to the brain dopamine systems in mammalian brain serve as models for various neuropsychiatric disorders. When drugs such as amphetamines are administered to animals for a certain period of time psychotic symptoms develop such as increased activity, agitation and decreased latency time to perform various motor tasks. In other words, opposite to those symptoms seen in Parkinson's disease, the time to perform various motor tasks decreased: they perform them quicker.
At appropriate concentrations, the addictive drug, dl-amphetamine (1 mg/kg) was injected intraperitoneally to produce psychosis and addiction in Sprague-Dawley rats. After 5 days of such treatment each animal was tested for their level of activity in a computerized activity chamber and on three motor tests. On the day after completion of the injections half the animals received a 2 μl injection of haloperidol (12.5 μg/μl) into the vitreous humor, just in front of the retina. The other half of the animals received a 2 μl injection of vehicle (80% DMSO solution) into the vitreous humor. The effects of such injections on various parameters of movement, such as the latency to ambulate and the latency to retract a front paw, were measured three hours after animals received their intravitreal injection. […]

COc1ccc2[nH]cc(CCNc3ccc([N+](=O)[O-])cc3[N+](=O)[O-])c2c1 [ML-23]
horizontal movement ([1]; FIG. 1): better horizontal movement | ability to retract/move the front limb ([1]; FIG. 2): better performance on the ability to move the front limb

O=C(CCCN1CCC(O)(c2ccc(Cl)cc2)CC1)c1ccc(F)cc1 [haloperidol]
latency to ambulate from a prescribed area [2]: increased | latency to retract an elevated limb [2]: increased
